Measured values taken from US10966426B2, “Herbicidal compositions comprising phenylpyrimidines” (BASF SE, priority 2016, dated 2021).

Legend:
Format in all cases: in vivo
Papaver rhoeas = assay: greenhouse post-emergence treatment, PAPRH; settings: 20 DAT
Procedure, shortened: (§1)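 Each species was grown separately and treated once it reached 3 to 15 cm, using actives suspended or emulsified in water. Plants were kept at 10-25° C. or 20-35° C., depending on species. Damage is a 0–100 rating taken during 2 to 4 weeks.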

Matricaria chamomilla = assay: greenhouse post-emergence treatment, MATCH; settings: 20 DAT
Procedure, shortened: as §1

Lolium multiflorum = assay: greenhouse post-emergence treatment, LOLMU; settings: 20 DAT, mesosulfuron solo 8 gai/ha
Procedure, shortened: (§2)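 Plants were grown in pots of loamy sand with approximately 3.0% humus, either sown directly or transplanted as seedlings a few days before treatment, and sprayed with water-based treatments. They were kept at 10-25° C. or 20-35° C. depending on species and rated visually after 2 to 4 weeks on a 0–100 scale (100 = no emergence or complete destruction of above-ground parts).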

Polygonum convolvulus = assay: greenhouse post-emergence treatment, POLCO; settings: 20 DAT, mesosulfuron solo 2 gai/ha
Experimental: (§3) The culture containers used were plastic pots containing loamy sand with approximately 3.0% of humus as substrate. The seeds of the test plants were sown separately for each species.
(§4) For the post-emergence treatment, the test plants were grown to a plant height of from 3 to 15 cm, depending on the plant habit, and only then treated with the active compounds which had been suspended or emulsified in water. To this end, the test plants were either sown directly, and grown in the same containers, or they were first grown separately as seedlings and transplanted into the test containers a few days prior to treatment.
(§5) Depending on the species, the plants were kept at 10-25° C. and 20-35° C., respectively.
(§6) The test period extended over 2 to 4 weeks. During this time, the plants were tended and their response to the individual treatments was evaluated.
(§7) Evaluation was carried out using a scale from 0 to 100. 100 means no emergence of the plants, or complete destruction of at least the above-ground parts, and 0 means no damage or normal course of growth. A good herbicidal activity is given at values of at least 70, and very good herbicidal activity is given at values of at least 85.
(§8) The respective stated components A and B, and if appropriate, C were formulated as a 10% by weight strength emulsion concentrate and, with addition of the amount of solvent system, introduced into the spray liquor used for applying the active compound. In the examples, the solvent used was water.
(§9) In the examples below, using the method of S. R. Colby (1967) “Calculating synergistic and antagonistic responses of herbicide combinations”, Weeds 15, p. 22ff., the value E, which is expected if the activity of the individual active compounds is only additive, was calculated. E=X+Y−(X·Y/100) where X=effect in percent using herbicide A at an application rate a; • Y=effect in percent using herbicide B at application rate b; • E=expected effect (in %) of herbicide A+herbicide B at application rates a+b.

Setaria viridis = assay: greenhouse post-emergence treatment, SETVI; settings: 20 DAT
Procedure, shortened: as §2

Galium aparine = assay: greenhouse post-emergence treatment, GALAP; settings: 20 DAT
Procedure, shortened: as §1

Stellaria media = assay: greenhouse post-emergence treatment, STEME; settings: 20 DAT, mesosulfuron solo 1 gai/ha
Procedure, shortened: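 Ratings of 0 to 100 reflect above-ground destruction versus normal growth after 2 to 4 weeks. Actives were sprayed post-emergence as water-diluted 10% emulsion concentrates onto plants 3–15 cm high.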

Echinocloa crus-galli = assay: greenhouse post-emergence treatment, ECHCG; settings: 20 DAT, mesosulfuron solo 2 gai/ha
Experimental: as §3, §4, §5, §6, §7, §8, §9

Digitaria sanguinalis = assay: greenhouse post-emergence treatment, DIGSA; settings: 20 DAT
Procedure, shortened: as §2

Ambrosia elatior = assay: greenhouse post-emergence treatment, AMBEL; settings: 20 DAT
Experimental: as §3, §4, §5, §6, §7, §8, §9

COC(=O)c1ccc(CNS(C)(=O)=O)cc1S(=O)(=O)NC(=O)Nc1nc(OC)cc(OC)n1 [mesosulfuron]
% activity (Papaver rhoeas; mesosulfuron solo 1 gai/ha): 70%
% activity (Papaver rhoeas; mesosulfuron solo 2 gai/ha): 90%
% activity (Papaver rhoeas; mesosulfuron solo 8 gai/ha): 98%
% activity (Papaver rhoeas; mesosulfuron solo (Mesosulfuron - Methyl WG […]), 1 gai/ha, PAPRH): 70%
% activity (Matricaria chamomilla; mesosulfuron solo 1 gai/ha): 30%
% activity (Matricaria chamomilla; mesosulfuron solo 2 gai/ha): 30%
% activity (Matricaria chamomilla; mesosulfuron solo 8 gai/ha): 90%
% activity (Matricaria chamomilla; mesosulfuron solo 9 gai/ha): 90%
% activity (Matricaria chamomilla; mesosulfuron solo (Mesosulfuron - Methyl WG […]), 2 gai/ha, MATCH): 30%
% activity (Lolium multiflorum): 90%
% activity (Polygonum convolvulus): 30%
% activity (Setaria viridis; mesosulfuron solo 8 gai/ha): 85%
% activity (Setaria viridis; mesosulfuron solo (Mesosulfuron - Methyl WG […]), 8 gai/ha, SETVI): 85%
% activity (Galium aparine; mesosulfuron solo 4 gai/ha): 65%
% activity (Galium aparine; mesosulfuron solo 8 gai/ha): 75%
% activity (Galium aparine; mesosulfuron solo (Mesosulfuron - Methyl WG […]), 1 gai/ha, GALAP): 55%
% activity (Galium aparine; mesosulfuron solo (Mesosulfuron - Methyl WG […]), 2 gai/ha, GALAP): 65%
% activity (Galium aparine; mesosulfuron solo (Mesosulfuron - Methyl WG […]), 4 gai/ha, GALAP): 65%
% activity (Galium aparine; mesosulfuron solo (Mesosulfuron - Methyl WG […]), 8 gai/ha, GALAP): 75%
% activity (Stellaria media): 95%
% activity (Echinocloa crus-galli): 0%
% activity (Digitaria sanguinalis; mesosulfuron solo 1 gai/ha): 0%
% activity (Digitaria sanguinalis; mesosulfuron solo 2 gai/ha): 0%
% activity (Digitaria sanguinalis; mesosulfuron solo 4 gai/ha): 20%
% activity (Ambrosia elatior; mesosulfuron solo 2 gai/ha): 80%
% activity (Ambrosia elatior; mesosulfuron solo 4 gai/ha): 85%
